{
  "source": "patent US20250049914A1",
  "about": "“STEROID ACID-PEPTIDE BASED INTRACELLULAR CARGO DELIVERY” (DEFENCE THERAPEUTICS INC., priority 2021, published 2025)",
  "key": {"WT MSCs": {"test_system": "WT MSCs", "experiment": "Antigen cross-presentation assay on wild-type MSCs with B3Z cells", "assay_type": "cell-based, mouse", "conditions": "WT MSCs treated with CA-hnRNPA1 and OVA", "description": "In order to generate Bone marrow (BM)-derived mouse MSCs, the femurs of 6-8-week-old female Balb/c or C57BL/6 mice were isolated and flushed with Alpha Modification of Eagle's Medium (AMEM) supplemented with 10% FBS and 50 U/mL Penicillin-Streptomycin in a 10 cm cell culture dish, then incubated at 37° C. Two days later, non-adherent cells were removed and the media replaced every 3 to 4 days until plastic-adherent cells reached 80% confluency. The generated cells were detached using 0.05% trypsin and expanded until a uniform MSC population was obtained. The generated MSCs were validated for their innate phenotype by flow-cytometry for the expression of CD44, CD45, CD73, and CD90. The cells were frozen in liquid nitrogen until use.\nTo assess cross-presentation assay, 25×10^3 cells MSCs were seeded per well in 24-well plate then pulsed with steroid acid peptide-conjugated for 6 h admixed with OVA. At the end of the pulsing period, the cells were washed to remove excess antigen then 5×10^4 B3Z cells. The cells were incubated for 17-19 hours prior to their lysis and incubation for another 4-6 hours at 37° C. with a CPRG solution. The optical density signal was detected at wavelength 570 using a SynergyH1™ microplate reader (Biotek, Winooski, VT, United States).\nTo determine whether a similar effect occurs in wild type (WT) (i.e., non-engineered) MSCs, BM-derived MSCs (Example 1) were used instead in the same cross presentation assay with B3Z responder cells."}, "BMDCs": {"test_system": "BMDCs", "experiment": "Antigen-presentation assay using the B3Z reporter system, BMDCs", "assay_type": "cell-based, mouse", "conditions": "for antigen cross-presentation of OVA (B3Z response) vs OVA alone / antigen-presentation activity of cholic acid-NLS peptide conjugates (B3Z response): BMDCs; for antigen cross-presentation of OVA (B3Z response) vs OVA alone: OVA mixed with bile acid/peptide/conjugate, molar ratio 4:1; for antigen-presentation activity of cholic acid-NLS peptide conjugates (B3Z response): OVA admixed, best conjugate: antigen ratio", "description": "Mouse bone marrow derived DCs (BMDCs) were generated by flushing the whole marrow from mouse femurs using RPMI™ 1640 supplemented with 10% fetal bovine serum (FBS), 50 U/mL Penicillin-Streptomycin, 2 mM L-glutamine, 10 mM HEPES, 1% MEM Non-essential Amino Acids, 1 mM Sodium Pyruvate, 0.5 mM beta-mercaptoethanol. Following red blood cell lysis, cells were then cultured in media supplemented with 50 ng/mL murine recombinant GM-CSF. The media was changed on days 2, 4, 6 and 8. On day 9, the media was replaced to include recombinant murine GM-CSF and LPS from Escherichia coli 0111 (1 ng/mL) to stimulate DC maturation. Mature DCs were assessed by flow cytometry for their surface expression of CD3, CD19, NK1.1, CD11c, CD80, CD86, and I-A^b.\n(§1) Various bile acid-NLS conjugates were screened using the B3Z reporter system. The B3Z cell line is a T-cell hybridoma specific for the H2-K^b-[…] complex. Once activated via its TCR, the LacZ reporter gene (under the NFAT promoter control) is expressed. Briefly, 1.5×10^5 BMDCs or 2.5×10^5 MSCs were co-cultured with 5×10^4 B3Z cells treated with the mixing conditions of ovalbumin (OVA) and bile acid-NLS conjugates for overnight at 37° C. with 5% CO2. The following day, all cells were washed twice with PBS (pH 7.4), and the cell pellets were lysed by adding 100 μL of a lysis buffer containing 0.15 mM chlorophenol red-beta-D-galactopyranoside (CPRG) substrate (Calbiochem, La Jolla, CA), 0.125% NP40 (EMD Sciences, La Jolla, CA), 9 mM MgCl2 (Aldrich, USA) and 100 mM 2-mercaptoethanol in PBS. After a 5- or 24-h incubation at 37° C., absorbance was taken at 570 nm with 636 nm as the reference wavelength. For these experiments, OVA was re-suspended in PBS (pH 7.3) at 5-10 mg/mL. The different bile acid-NLS conjugates were re-suspended in H2O at 10 mg/mL. Bile acid-NLS conjugate: antigen mixtures were prepared at different molar ratios according to Table 1.\nVariants of CA-SV40NLS were synthesized in order to explore structure-activity relationships relating to the antigen cross-presentation enhancing activity observed for this conjugate, and therefore a measure of antigen/cargo delivery. More particularly, conjugates having different bile acids conjugated to the SV40NLS peptide (SEQ ID NO: 1) were synthesized and their effect on antigen presentation was evaluated by using the B3Z reporter system with the OVA antigen as described in Example 1. […] In FIG. 11, no increase in antigen cross-presentation in BMDCs over the antigen alone (“OVA”) was observed when OVA was mixed with either unconjugated cholic acid (“CA”) or SV40NLS peptide (“SV40NLS”), although lower sensitivity of the B3Z reporter system as compared to the OT-I CD8 T cell-based assay may have been a factor.\n(§2) Further variants of CA-SV40NLS were synthesized in which the SV40NLS peptide was replaced with peptides comprising other NLS's (Table 5) and the antigen presentation activities of the CA-NLS peptide conjugates were evaluated using the B3Z reporter system as described in Example 1. The following conjugate: antigen molar ratios were tested for each conjugate: 2:1, 4:1, 8:1, 12:1 and 22:1. The results in FIGS. 12-15 compare the antigen presentation activities of different conjugates at the conjugate: antigen ratio that yielded the highest B3Z response (OD570) for that conjugate."}, "[1]": {"test_system": "cross-presenting mesenchymal stromal cell line (cpMSC)", "experiment": "Antigen-presentation assay using the B3Z reporter system, cross-presenting MSC line", "assay_type": "cell-based", "conditions": "cpMSCs, OVA admixed, vs OVA alone or OVA mixed with CA-SV40NLS", "description": "as §1, §2"}, "cpMSCs [2]": {"test_system": "cpMSCs", "experiment": "OVA-DQ processing in cpMSCs, flow cytometry", "assay_type": "cell-based", "conditions": "various molar ratios", "description": "(§3) For this experiment, a cross-presenting mesenchymal stromal cell line (cpMSC) was used as the antigen presenting cells, which were pulsed with DQ™ Ovalbumin (i.e., OVADQ). OVADQ fluorescence was measured by flow cytometry. Different ratios of CA (NLS1 RSP17 [FIG. 17A]; NLS3 RPS17 [FIG. 17B]; and PQBP-1 [FIG. 17C] to antigen (CA: OVA=22:1, 12:1, 8:1, 4:1, and 2:1) were tested (hnRNPA1 M9 NLS at 2:1).\n(§4) To further dissect the effect of bile acid peptide conjugates on antigen presentation, antigen internalization and processing were evaluated. cpMSCs were pulsed with OVA-labelled with AF647 in the presence of various molar ratios of different bile acid peptide conjugates, NLS1-RPS17 [FIG. 16A]; NLS3 RPS17 [FIG. 16B]; PQBP-1 [FIG. 16C]; and hnRNPA1 M9 NLS [FIG. 6]) and fluorescence was assessed by flow cytometry. […] OVA processing was assessed by pulsing cpMSCs with DQ™-Ovalbumin (OVA-DQ) in the presence of the same bile acid peptide conjugates as in FIGS. 6 and 16."}, "cpMSCs [3]": {"test_system": "cpMSCs", "experiment": "OVA-AF647 internalization in cpMSCs, flow cytometry", "assay_type": "cell-based", "conditions": "various molar ratios", "description": "as §3, with “the OVA cargo labelled with Alexa Fluor 647” for “DQ™ Ovalbumin”, “OVA^647)^TM. OVA^647” for “OVADQ). OVADQ”, “RPS17” for “RSP17”, “16A];” for “17A];”, “16B];” for “17B];”, “16C]” for “17C]”\nas §4"}},
  "note": "Where no end group is shown, it is not given here.",
  "data": [
    {"compound": "Cc1c(C)c2c(c(C)c1O)CC[C@@](C)(CCC[C@H](C)CCC[C@H](C)CCCC(C)C)O2", "note": "[α-tocopherol]", "values": [
      {"measurement": "effect of inhibitor on the antigen cross-presentation capacity of CA-hnRNPA1", "setting": "WT MSCs", "value": "neutralization"}
    ]},
    {"compound": "c1ccc2c(c1)[I+]c1ccccc1-2", "note": "[DPI, diphenyleneiodonium chloride]", "values": [
      {"measurement": "effect of inhibitor on the antigen cross-presentation capacity of CA-hnRNPA1", "setting": "WT MSCs", "value": "neutralization"}
    ]},
    {"compound": "C[C@H](CCC(=O)O)[C@H]1CC[C@H]2[C@@H]3[C@H](O)C[C@@H]4C[C@H](O)CC[C@]4(C)[C@H]3C[C@H](O)[C@]12C", "note": "[CA, cholic acid, reference compound]", "values": [
      {"measurement": "antigen cross-presentation of OVA (B3Z response) vs OVA alone", "setting": "BMDCs", "value": "no increase"}
    ]},
    {"compound": "GWG-SV40NLS: cholic acid conjugated to peptide CGWWGYGPKKKRKVGGWWG (SEQ ID NO: 3) (not fully specified (N-terminus); also: cholic acid conjugate, site not given here)", "values": [
      {"measurement": "antigen-presentation activity of cholic acid-NLS peptide conjugates (B3Z response)", "setting": "[1]", "value": "strikingly high antigen-presentation activity"},
      {"measurement": "antigen-presentation activity of cholic acid-NLS peptide conjugates (B3Z response)", "setting": "BMDCs", "value": "higher antigen-presentation activity than SV40NLS"}
    ]},
    {"compound": "CC1(C)CC(NC(=O)C[P+](c2ccccc2)(c2ccccc2)c2ccccc2)CC(C)(C)N1[O]", "note": "[MitoTempo™]", "values": [
      {"measurement": "effect of inhibitor on the antigen cross-presentation capacity of CA-hnRNPA1", "setting": "WT MSCs", "value": "did not neutralize"}
    ]},
    {"compound": "CC(=O)N[C@@H](CS)C(=O)O", "note": "[N-acetylcysteine]", "values": [
      {"measurement": "effect of inhibitor on the antigen cross-presentation capacity of CA-hnRNPA1", "setting": "WT MSCs", "value": "neutralization"}
    ]},
    {"compound": "NLS2-RG Domain RPS17: cholic acid conjugated to NLS2-RG Domain RPS17 peptide (SEQ ID NO: 8) (CNKRVCEEIAIIPSKKLRNKGSGRIQRGPVRGIS; cysteine pairing not given here; also: cholic acid conjugate, site not given here)", "values": [
      {"measurement": "antigen-presentation activity of cholic acid-NLS peptide conjugates (B3Z response)", "setting": "BMDCs", "value": "high antigen presentation activity"}
    ]},
    {"compound": "PQBP-1 NLS: cholic acid conjugated to PQBP-1 NLS peptide CADREEGKERRHHRREELAPY (SEQ ID NO: 7) (not fully specified (N-terminus); also: cholic acid conjugate, site not given here)", "values": [
      {"measurement": "antigen-presentation activity of cholic acid-NLS peptide conjugates (B3Z response)", "setting": "[1]", "value": "strikingly high antigen-presentation activity"},
      {"measurement": "OVA processing (OVA-DQ fluorescence)", "setting": "cpMSCs [2]", "value": "enhance OVA processing"},
      {"measurement": "OVA internalization (OVA-AF647 fluorescence)", "setting": "cpMSCs [3]", "value": "enhance OVA internalization"},
      {"measurement": "antigen-presentation activity of cholic acid-NLS peptide conjugates (B3Z response)", "setting": "BMDCs", "value": "strikingly high antigen-presentation activity"}
    ]},
    {"compound": "NLS3-RPS17: cholic acid conjugated to NLS3 RPS17 peptide SKKLRNKIAGYVTHLMKRI (SEQ ID NO: 11)", "values": [
      {"measurement": "OVA processing (OVA-DQ fluorescence)", "setting": "cpMSCs [2]", "value": "enhance OVA processing"},
      {"measurement": "OVA internalization (OVA-AF647 fluorescence)", "setting": "cpMSCs [3]", "value": "enhance OVA internalization"},
      {"measurement": "antigen-presentation activity of cholic acid-NLS peptide conjugates (B3Z response)", "setting": "BMDCs", "value": "high antigen presentation activity"}
    ]},
    {"compound": "C[C@H](CCC(=O)NCC(=O)O)[C@H]1CC[C@H]2[C@@H]3[C@@H](O)C[C@@H]4C[C@H](O)CC[C@]4(C)[C@H]3CC[C@]12C", "note": "[GUDCA, glycoursodeoxycholic acid, reference compound]", "values": [
      {"measurement": "immunogen enhancer activity across GUDCA: OVA molar ratios", "setting": "BMDCs; 2:1, 4:1, 8:1, 12:1 and 22:1", "value": "observed at all GUDCA: OVA molar ratios tested"},
      {"measurement": "increase in B3Z response (OD570) over OVA alone", "setting": "BMDCs; OVA mixed with unconjugated GUDCA, 22:1, data not shown", "value": "≤ 30", "unit": "%"}
    ]},
    {"compound": "cMyc NLS: cholic acid conjugated to cMyc NLS peptide CGYGPAAKRVKLDGG (SEQ ID NO: 12) (not fully specified (N-terminus); also: cholic acid conjugate, site not given here)", "values": [
      {"measurement": "antigen-presentation activity of cholic acid-NLS peptide conjugates (B3Z response)", "setting": "BMDCs", "value": "high antigen presentation activity"}
    ]},
    {"compound": "UDCA: ursodeoxycholic acid conjugated to the SV40NLS peptide (SEQ ID NO: 1) (CGYGPKKKRKVGG; not fully specified (N-terminus); also: ursodeoxycholic acid conjugate, site not given here)", "values": [
      {"measurement": "antigen cross-presentation of OVA (B3Z response) vs OVA alone", "setting": "BMDCs", "value": "comparable or higher"}
    ]},
    {"compound": "SV40NLS: unconjugated NLS peptide CGYGPKKKRKVGG (SEQ ID NO: 1) (not fully specified) [reference compound]", "values": [
      {"measurement": "antigen cross-presentation of OVA (B3Z response) vs OVA alone", "setting": "BMDCs", "value": "no increase"}
    ]},
    {"compound": "GCDCA: glycochenodeoxycholic acid conjugated to the SV40NLS peptide (SEQ ID NO: 1) ({Glycochenodeoxycholic acid}-CGYGPKKKRKVGG; also: glycochenodeoxycholic acid conjugate, MOD_RES 1 Cholic Acid (ChAc))", "values": [
      {"measurement": "antigen cross-presentation of OVA (B3Z response) vs OVA alone", "setting": "BMDCs", "value": "comparable or higher"}
    ]},
    {"compound": "CC(=O)c1ccc2c(c1)Nc1ccccc1S2", "note": "[ML171]", "values": [
      {"measurement": "effect of inhibitor on the antigen cross-presentation capacity of CA-hnRNPA1", "setting": "WT MSCs", "value": "neutralization"}
    ]}
  ]
}
